Measurements from patent US10842793B2, “Inhibitors of the unconventional secretion of fibroblast growth factor 2 (FGF2) by tumor cells and uses thereof” (Universität Heidelberg, priority 2016, dated 2020).
Entries after “also recorded” stand apart in the source; their conditions may differ.

Key:
His-FGF2/GST-NΔ173 Tec = target: T1, His-FGF2/GST-NΔ173 Tec (Homo sapiens, UniProt P42680); test: Alpha protein-protein interaction assay, FGF2 binding to Tec kinase; conditions: dose-response, ± SEM, four independent experiments
T1 construct: made in house; host or cells: Tec: SF9 insect cells (baculovirus); FGF2: E. coli
T1 sequence (P42680 174-631 limits assumed, stated change not applied): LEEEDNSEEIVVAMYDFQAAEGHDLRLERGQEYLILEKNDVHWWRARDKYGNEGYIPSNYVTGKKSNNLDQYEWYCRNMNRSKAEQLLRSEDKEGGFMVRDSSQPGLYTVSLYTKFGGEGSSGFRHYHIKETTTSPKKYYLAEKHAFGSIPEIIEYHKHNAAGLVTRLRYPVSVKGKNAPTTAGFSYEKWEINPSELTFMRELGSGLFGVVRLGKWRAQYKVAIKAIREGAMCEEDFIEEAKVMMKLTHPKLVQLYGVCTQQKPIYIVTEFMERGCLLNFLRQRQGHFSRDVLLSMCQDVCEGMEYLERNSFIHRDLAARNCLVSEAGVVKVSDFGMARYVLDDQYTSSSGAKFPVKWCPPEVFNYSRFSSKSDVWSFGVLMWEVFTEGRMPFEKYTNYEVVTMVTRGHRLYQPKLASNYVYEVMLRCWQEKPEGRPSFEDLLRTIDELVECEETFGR
Description: Alpha® protein-protein interaction assays with His-tagged FGF2 (125 nM) and GST-NΔ173 Tec (31.25 nM) (blue spheres) as well as His-tagged MBP-CARP (20 nM) and GST-titin (20 nM) (red squares) were conducted as described in the legend of FIG. 3 and in Experimental Procedures. Additionally, as a technical control, a single fusion protein containing both a GST- and a His-tag was used (20 nM; black triangles). Dose response curves were recorded with the three active compounds (#6, #14 and #21) as well as the two control compounds (#18 and #19) (FIG. 4). For each compound four independent experiments (each of which was conducted in three technical replicates) were performed. Data points were fitted using the non-linear regression function log (inhibitor) vs. response—variable slope (four parameters). Data were evaluated using GraphPad Prism (v5 for Mac OS X). Standard deviations are shown.
A Protein-Protein Interaction Assay Designed to Screen Small Molecule Libraries for Compounds Inhibiting FGF2 Binding to Tec Kinase (Alphascreen® Assay)
To quantify the interaction of FGF2 with Tec kinase under screening conditions, an assay was established based upon Alpha® technology. Briefly, this methodology is based on a pair of proteins of interest that bind to Alpha® donor and acceptor beads, respectively. Upon excitation of donor beads at 680 nm, singlet oxygen species are produced that can diffuse within a range of 200 nm. […] This in turn causes emission of light with a wave length of 520 nm that is detected as the Alpha® signal.
The optimal concentrations of His-tagged FGF2 and GST-tagged NΔ173 Tec in the Alphascreen were determinate in a cross-titration experiment (not shown) to be 31.25 nM and 62.5 nM, respectively. […] All Alpha® assays were carried out in white low volume 384-well plates (#6008280, ProxiPlate™) and read in an EnVision plate reader (Perkin Elmer). […]
AlphaScreen experiments were performed as described above. […] Following 60 min of incubation, Alpha® signals were recorded using an EnVision™ plate reader (PerkinElmer). […]

[1] = test system: CHO cells stably expressing FGF2-GFP; test: FGF2-GFP secretion by cell surface biotinylation; type: cell-based; conditions: 10, 25 and 50 μM; mock 0.5% DMSO = 100%
Excerpt: A stable CHO cell line expressing an FGF2-GFP fusion protein in a doxycycline-dependent manner was used to quantify FGF2 transport to cell surfaces in the absence and presence of the small molecule inhibitors introduced in FIGS. 4, 5, 6 and 7. As detailed in Experimental Procedures, following cultivation of cells in the presence of compounds as indicated and induction of FGF2-GFP expression, proteins localized to the cell surface were biotinylated with a membrane-impermeable reagent. Following quenching of the biotinylation reagent, biotinylated proteins were purified using streptavidin beads. Following SDS-PAGE analyzing both the total lysate (input termed “cells”; 1.7%) and the biotinylated cell surface fraction (33%), a Western analysis was conducted to detect the secreted population of FGF2-GFP. Using appropriate fluorescent secondary antibodies, both FGF2-GFP and GAPDH (used as a control protein restricted to the intracellular space) were quantified using the LI-COR Odyssey imaging platform. FGF2-GFP secretion quantified under mock conditions (0.5% DMSO) was defined as 100% secretion efficiency. Standard deviations are shown from three independent experiments, each of which was conducted in two technical replicates. A two-tailed and unpaired T-test was conducted to assess statistical significance (* p<0.05, ** p<0.01, *** p<0.001, **** p<0.0001). “NS” indicates absence of significant differences.
Secreted FGF2 remains bound to heparan sulfates on cell surfaces without release into cell culture supernatants. This allows for biochemical detection of the secreted population based upon cell surface biotinylation experiments. CHO cells stably expressing FGF2-GFP in a doxycycline-dependent manner were cultivated in the presence of compounds #6, #14, #21, #18 and #19 (see FIGS. 4 and 5) at 10 μM, 25 μM and 50 μM in 0.5% DMSO (final concentration) as well as under mock conditions. […] Using appropriate fluorescent secondary antibodies, FGF2-GFP and GAPDH were quantified using the LI-COR Odyssey imaging platform. […]

SMILES	IC50 (His-FGF2/GST-NΔ173 Tec) [µM]	inhibition of FGF2 secretion from cells [1]
COC(=O)c1c(C)[nH]c(C(=O)OCc2cc(=O)n3c(C)cccc3n2)c1C [compound #6]	8.9	inhibition was observed in a dose-dependent manner
CC(=O)c1c(C)[nH]c(C(=O)OCc2cc(=O)n3cc(Br)ccc3n2)c1C [compound #14]	7	inhibition was observed in a dose-dependent manner
CC(=O)c1c(C)[nH]c(C(=O)CSc2nc3cc(Cl)cnc3[nH]2)c1C [compound #21]	11.7	inhibition was stronger at 10 μM compared to higher concentrations; also recorded: robust inhibition at 10 μM and somewhat less efficient inhibition at 25 and 50 μM
